Patent US8501725B2, “Synergistic combination of flumetsulam or diclosulam with zinc pyrithione” (Dow Global Technologies LLC, priority 2010, dated 2013)
Like-named read-outs stand apart in the source and are kept apart here.

Assays:
Assay type in all cases: cell-based
[1] = system: Aa + Tv + An + Pf + Ap + Ch; assay: Fungal efficacy testing, modified ASTM 5590, paint film (Diclosulam + ZPT study, single pool of all fungi); details: four weeks; for % inhibition: at the Total conc given; for Total conc: in acrylic latex paint, dry film, 30 C
Protocol: (§1) Sample preparation: A single or blend of biocides was post added into white acrylic latex paint free of biocides to give a maximum total active ingredient/s concentration tested. This paint was then diluted with a biocide free acrylic latex paint to give targeted concentrations for the testing. Depending on the type of biocide blends tested, the total biocides concentrations varies from 200 to 5000 ppm. After biocides addition or dilution, each sample was hand mixed for at least a minute until uniformity is achieved. Each of the paint samples as well as a control sample (containing no biocide) were used to prepare films on black plastic-vinyl chloride/acetate copolymer panels (LENETA, Mahwah, N.J.) using a 3 mil (0.0762 mm) bird bar applicator. The panels were thoroughly dried for at least 2 days avoiding direct exposure to sunlight. Square discs ([…]) were cut out from each panel and were used as the substrate for fungal and algal efficacy tests. This sample size allowed for an agar border when the sample disc was placed into the well of the test plate. Each sample was tested in duplicate
(§2) Test conditions: The appropriate media (BOLD'S 3N for Chlorophytes, BG-11 for Cyanobacteria, and PDA for fungi) were used to support microbial growth. The test plates were maintained at room temp (25° C.-26° C.), in a cycled light-dark environment, for four weeks for algae. Plates for fungal challenge tests were maintained at 30 C for four weeks. At the end of the incubation period the samples were scored for percent area covered by visible microbial growth.
ASTM 5590 is a standard accelerated test method for determining resistance of various coatings (including paints) to fungal defacement. To accommodate for high-throughput screening, this method was scaled down from petri plates to 6-well plates. To set up the test, an agar plug was placed at the bottom of each well of the sterile 6-well plate. A single coupon was placed with a pair of sterile forceps at the center of the agar plug (on top) with the painted surface facing upwards. Fungal inoculums were prepared by mixing equal concentrations (1×10^6 cfu/ml) and equal volumes (depending on number of samples to be tested) of like growing organisms. For Flumetsulam+various IT synergy study, three pools of mixed fungi were prepared as the test inoculum. Cladosporium herbarum was mixed with Aureobasidium pullulans; Aspergillus niger was mixed with Penicillium funiculosum and Alternaria alternata was mixed with Trichoderma viride. For Diclosulam+various IT synergy study, all above fungi were mixed as a single pool. […] The total percent area covered was evaluated and recorded at the end of each week after the 2nd week and recorded in increments of 5%.
(§3) The SI is calculated based on F. C. […]

[2] = system: Chlorella sp., Chlorella kessleri, Nostoc commune, Trentepohlia aurea, Tretepohlia odorata, and Calotrix parientina (Cp + To + Ta + Cs + Ck + Nc); assay: Algal efficacy testing, modified ASTM 5589, paint film (Diclosulam + ZPT study); details: four weeks; for % inhibition: at the Total conc given
Protocol: as §1, §2
(§4) ASTM 5589 is a standard accelerated test method for determining resistance of various coatings (including paints) to algal defacement. To accommodate for high-throughput screening, this method was scaled down from petri plates to 6-well plates. A single coupon was placed with a pair of sterile forceps at the center of the agar plug (on top) with the painted surface facing upwards. Algal inoculums were prepared by mixing equal concentrations (1×10^6 cfu/ml) and equal volumes (depending on number of samples to be inoculated) of like growing organisms.
(§5) In Diclosulam+various IT synergy study, only two pools of mixed algae were prepared; Gloeocapsa sp. and Oscillatoria sp. grown on BG-11 media and Chlorella sp., Chlorella kessleri, Nostoc commune, Trentepohlia aurea, Tretepohlia odorata, and Calotrix parientina grown on Bold media
(§6) Each well that contains a tested coupon was inoculated with 400 μl of organism mixture (1×10^6 cfu/ml) making sure that the whole surface (paint film as well as the agar surrounding it) was evenly covered. […] The total area covered was evaluated at the end of each week according to percent area covered in 5% increments.
as §3

[3] = as above; details: Nostoc commune, 672 h; Cp + To + Ta + Cs + Ck + Nc; in acrylic latex paint, dry film; four weeks; read-out: Total conc (minimum inhibitory concentration chosen for SI)
Protocol: as §1, §2, §4, §5, §6, §3

[4] = system: Gloeocapsa sp. and Oscillatoria sp. (Gs + Os); assay: Algal efficacy testing, modified ASTM 5589, paint film (both studies); details: four weeks; for MIC: 672 h, read-out: Total conc (minimum inhibitory concentration chosen for SI); for MIC / Total conc (minimum inhibitory concentration chosen for SI): in acrylic latex paint, dry film; for % inhibition: at the Total conc given
Protocol: as §1, §2, §4
(§7) In Flumetsulam+various IT synergy study, three pool of mixed algae were prepared as the test inoculum, Gloeocapsa sp. and Oscillatoria sp. a mix of cyanobacteria grown on BG-11 media; Chlorella sp., Chlorella kessleri, and Nostoc commune are unicellular chlorphytes that were mixed and grown on Bold media; Trentepohlia aurea, Tretepohlia odorata, and Calotrix parientina are filamentous algae that were mixed and grown on Bold media.
as §5
(§8) Each well that contains a tested coupon was inoculated with 400 μl of organism mixture (1×10^6 cfu/ml) making sure that the whole surface (paint film as well as the agar surrounding it) was evenly covered. The plates were incubated at room temp (25° C.-26° C.) with cyclic exposure to light (OTT-Lite model # OTL4012P, 40 Watt, 26KLumen) and dark phases, for a period of four weeks. The total area covered was evaluated at the end of each week according to percent area covered in 5% increments.
(§9) The SI is calculated based on F. C.
(§10) NE=no end point at the concentration tested that will meet the percent inhibition criteria set in each SI calculation

[5] = system: Alternaria alternata mixed with Trichoderma viride (AaTv); assay: Fungal efficacy testing, modified ASTM 5590, paint film (Flumetsulam + ZPT study); details: four weeks; for % inhibition: at the Total conc given
Protocol: as §1, §2
(§11) ASTM 5590 is a standard accelerated test method for determining resistance of various coatings (including paints) to fungal defacement. To accommodate for high-throughput screening, this method was scaled down from petri plates to 6-well plates. To set up the test, an agar plug was placed at the bottom of each well of the sterile 6-well plate. A single coupon was placed with a pair of sterile forceps at the center of the agar plug (on top) with the painted surface facing upwards. Fungal inoculums were prepared by mixing equal concentrations (1×10^6 cfu/ml) and equal volumes (depending on number of samples to be tested) of like growing organisms. For Flumetsulam+various IT synergy study, three pools of mixed fungi were prepared as the test inoculum. Cladosporium herbarum was mixed with Aureobasidium pullulans; Aspergillus niger was mixed with Penicillium funiculosum and Alternaria alternata was mixed with Trichoderma viride. For Diclosulam+various IT synergy study, all above fungi were mixed as a single pool. Each well was inoculated with 400 μl of organism mixture (1×10^6 cfu/ml) making sure that the whole surface (paint film as well as the agar surrounding it) was evenly covered. The plates were incubated at 30° C. in presence of moisture, for a period of four weeks. The total percent area covered was evaluated and recorded at the end of each week after the 2nd week and recorded in increments of 5%.
as §9, §10

[6] = system: Cladosporium herbarum mixed with Aureobasidium pullulans (ApCh); assay: as above; details: four weeks; for % inhibition: at the Total conc given
Protocol: as §1, §2, §11, §9, §10

[7] = system: Aspergillus niger mixed with Penicillium funiculosum (AnPf); assay: as above; details: four weeks; for % inhibition: at the Total conc given
Protocol: as §1, §2, §11, §9, §10

[8] = system: Trentepohlia aurea, Tretepohlia odorata, and Calotrix parientina (Cp + To + Ta); assay: Algal efficacy testing, modified ASTM 5589, paint film (Flumetsulam + ZPT study); details: four weeks; for % inhibition: at the Total conc given; for Total conc (minimum inhibitory concentration chosen for SI): in acrylic latex paint, dry film, 25-26 C, light-dark
Protocol: as §1, §2, §4, §7, §8, §9, §10

[9] = system: Chlorella sp., Chlorella kessleri, and Nostoc commune (Cs + Ck + Nc); assay: as above; details: four weeks; for % inhibition: at the Total conc given
Protocol: as §1, §2, §4, §7, §8, §9, §10

[10] = in acrylic latex paint, dry film, 30 C

| Molecule | % inhibition [1] [%] | Total conc [1] [ppm] | % inhibition [2] [%] | % inhibition ([4]; Diclosulam and ZPT study) [%] | % inhibition [5] [%] | % inhibition [6] [%] | % inhibition [7] [%] | % inhibition ([4]; Flumetsulam and ZPT study) [%] | % inhibition [8] [%] | Total conc (minimum inhibitory concentration chosen for SI) [8] [ppm] | % inhibition [9] [%] | other results |
| --- | --- | --- | --- | --- | --- | --- | --- | --- | --- | --- | --- | --- |
| CCOc1nc(F)cc2nc(S(=O)(=O)Nc3c(Cl)cccc3Cl)nn12 [Diclosulam, N-(2,6-dichlorophenyl)-5-ethoxy-7-fluoro[1,2,4]triazolo[1,5-c]pyrimidine-2-sulfonamide] | 0 | 3500 | 80 | 100 | – | – | – | – | – | – | – | MIC [3]: 3500 µg/mL; MIC ([4]; Diclosulam and ZPT study): 438 µg/mL |
| Cc1ccn2nc(S(=O)(=O)Nc3c(F)cccc3F)nc2n1 [Flumetsulam, N-(2,6-difluorophenyl)-5-methyl[1,2,4]triazolo[1,5-a]pyrimidine-2-sulfonamide] | – | – | – | – | 0 | 25 | 0 | 0 | 100 | 2625 | 90 | MIC ([5]; Alternaria alternata, 672 h, in acrylic latex paint, dry film, 30 C, NE = no end point at the concentration tested, read-out: Total conc (minimum inhibitory concentration chosen for SI)): 3500 µg/mL; MIC ([6]; Cladosporium herbarum, 672 h, in acrylic latex paint, dry film, 30 C, read-out: Total conc (minimum inhibitory concentration chosen for SI)): 3500 µg/mL; MIC ([7]; Aspergillus niger, 672 h, in acrylic latex paint, dry film, 30 C, read-out: Total conc (minimum inhibitory concentration chosen for SI)): 3500 µg/mL; MIC ([4]; Flumetsulam and ZPT study): 2620 µg/mL; MIC ([9]; Nostoc commune, 672 h, in acrylic latex paint, dry film, 25-26 C, light-dark, read-out: Total conc (minimum inhibitory concentration chosen for SI)): 3500 µg/mL |
| zinc pyrithione [ZPT] | 0 | 5000 | 100 | 100 | 50 | 100 | 100 | 100 | 100 | 625 | 100 | Total conc (minimum inhibitory concentration chosen for SI) ([2]; in acrylic latex paint, dry film): 625 ppm; Total conc (minimum inhibitory concentration chosen for SI) ([5]; in acrylic latex paint, dry film, 30 C, NE = no end point at the concentration tested): 5000 ppm; Total conc (minimum inhibitory concentration chosen for SI) [6, 10]: 625 ppm; Total conc (minimum inhibitory concentration chosen for SI) [7, 10]: 625 ppm; Total conc (minimum inhibitory concentration chosen for SI) ([4]; Diclosulam and ZPT study): 625 ppm; Total conc (minimum inhibitory concentration chosen for SI) ([4]; Flumetsulam and ZPT study): 625 ppm; Total conc (minimum inhibitory concentration chosen for SI) ([9]; in acrylic latex paint, dry film, 25-26 C, light-dark): 625 ppm |
